Reference: PubChem BioAssay AID330 (DTP/NCI, 2004)
Where “and” joins values, the source holds several entries; their conditions need not be identical. Equal values may be shown once. Toxic doses and inconclusive results are not listed. How the source made its calls: active means survival T/C of 150% or more; inactive means T/C below 125% in these data.

Test system: P388 leukemia ip, CD2F1 mice, survival T/C
Experiment: NCI In Vivo Anticancer Drug Screen. Data for tumor model P388 Leukemia (intraperitoneal) in CD2F1 (CDF1) mice
Conditions: endpoint: median survival time, higher = longer survival
In short: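 Mice carrying the transplanted tumor received test compound or vehicle. Survival was recorded in each group, and the value is the treated-group measurement divided by that of the vehicle-treated control group.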

[1] = dose: 60.0 mg/kg/injection, schedule: Q01DX005 (ip), vehicle: saline with Tween-80
[2] = dose: 120.0 mg/kg/injection, schedule: Q01DX005 (ip), vehicle: saline with Tween-80
[3] = dose: 240.0 mg/kg/injection, schedule: Q01DX005 (ip), vehicle: saline with Tween-80
[4] = dose: 100.0 mg/kg/injection, schedule: Q01DX001 (ip), vehicle: Klucel (hydroxypropylcellulose) (HPC)
[5] = dose: 50.0 mg/kg/injection, schedule: Q01DX005 (ip), vehicle: Klucel (hydroxypropylcellulose) (HPC)
[6] = dose: 100.0 mg/kg/injection, schedule: Q01DX005 (ip), vehicle: Klucel (hydroxypropylcellulose) (HPC)
[7] = dose: 25.0 mg/kg/injection, schedule: Q01DX009 (ip), vehicle: saline
[8] = dose: 200.0 mg/kg/injection, schedule: Q01DX005 (ip), vehicle: Klucel (hydroxypropylcellulose) (HPC)
[9] = dose: 50.0 mg/kg/injection, schedule: Q04DX003 (ip), vehicle: saline with Tween-80
[10] = dose: 100.0 mg/kg/injection, schedule: Q04DX003 (ip), vehicle: saline with Tween-80
[11] = dose: 200.0 mg/kg/injection, schedule: Q04DX003 (ip), vehicle: saline with Tween-80
[12] = dose: 50.0 mg/kg/injection, schedule: Q01DX009 (ip), vehicle: saline with Tween-80
[13] = dose: 200.0 mg/kg/injection, schedule: Q01DX009 (ip), vehicle: saline with Tween-80

Measured: T/C

CC1(C)C2CCC(C2)C1OC(=O)c1ccccc1C(=O)O (stereo unspecified)
inactive: [1] 99 % of control | [2] 98 % of control | [3] 104 % of control

O=C1CC(c2ccc(Cl)cc2)C(c2ccc(Cl)cc2)C1=O (stereo unspecified)
inactive: dose: 6.25 mg/kg/injection, schedule: Q01DX001 (ip), vehicle: Klucel (hydroxypropylcellulose) (HPC) 107 % of control | dose: 12.5 mg/kg/injection, schedule: Q01DX001 (ip), vehicle: Klucel (hydroxypropylcellulose) (HPC) 112 % of control | dose: 25.0 mg/kg/injection, schedule: Q01DX001 (ip), vehicle: Klucel (hydroxypropylcellulose) (HPC) 106 % of control and 86 % of control | [4] 99 % of control

COc1ccc(C(=O)NCc2cccnc2)cc1C(=O)NCc1cccnc1
inactive: dose: 50.0 mg/kg/injection, schedule: Q01DX005 (ip), vehicle: saline with Tween-80 94 % of control | dose: 100.0 mg/kg/injection, schedule: Q01DX005 (ip), vehicle: saline with Tween-80 103 % of control | dose: 200.0 mg/kg/injection, schedule: Q01DX005 (ip), vehicle: saline with Tween-80 99 % of control

CCOc1nc2ccc(NC(C)CN3CCN(CCc4ccccc4)CC3)cc2s1 (stereo unspecified)
inactive: [5] 109 % of control | [6] 118 % of control

Cc1ncc2c(c1O)COC2C (stereo unspecified)
inactive: dose: 60.0 mg/kg/injection, schedule: Q01DX005 (ip), vehicle: saline 100 % of control | dose: 120.0 mg/kg/injection, schedule: Q01DX005 (ip), vehicle: saline 97 % of control | dose: 240.0 mg/kg/injection, schedule: Q01DX005 (ip), vehicle: saline 99 % of control

COc1ccc2c3csc4ccccc4c-3nc2c1
inactive: dose: 16.0 mg/kg/injection, schedule: Q01DX009 (ip), vehicle: saline 107 % of control | [7] 115 % of control | dose: 35.0 mg/kg/injection, schedule: Q01DX009 (ip), vehicle: saline 95 % of control

Cc1cnnc2c3ccccc3nn12
inactive: [5] 99 % of control | [6] 101 % of control | [8] 101 % of control

CN1C(Sc2ccccc2)=NN(c2ccccc2)CN1c1ccccc1
inactive: [9] 93 % of control | [10] 97 % of control | [11] 88 % of control

CN=C(N)N/N=C(\c1ccc(Cl)cc1)c1ccc([N+](=O)[O-])cc1Cl
inactive: dose: 25.0 mg/kg/injection, schedule: Q04DX002 (ip), vehicle: saline with Tween-80 100 % of control | dose: 50.0 mg/kg/injection, schedule: Q04DX002 (ip), vehicle: saline with Tween-80 101 % of control

Cn1c(Cl)c(C=O)c(=O)n(C)c1=O
inactive: [10] 104 % of control | [11] 96 % of control

CNC(=O)n1cccc(OC)c1=O
inactive: dose: 12.5 mg/kg/injection, schedule: Q01DX009 (ip), vehicle: saline 102 % of control and 107 % of control | [7] 100 % of control and 111 % of control

COc1cc2c(c3c1c(=O)c1cc(F)ccc1n3C)C=CC(C)(C)O2
inactive: [5] 103 % of control | [6] 100 % of control and 104 % of control | [8] 105 % of control and 98 % of control

CCOC(=O)Sc1ncnc2nc[nH]c12
inactive: dose: 33.0 mg/kg/injection, schedule: Q01DX009 (ip), vehicle: saline with Tween-80 113 % of control | [12] 122 % of control | dose: 75.0 mg/kg/injection, schedule: Q01DX009 (ip), vehicle: saline with Tween-80 122 % of control | [10] 104 % of control | [11] 108 % of control

C=CC(C)(C)C1(O)Oc2cc(OC)ccc2C=C1c1ccccc1 (stereo unspecified)
inactive: [4] 101 % of control | dose: 200.0 mg/kg/injection, schedule: Q01DX001 (ip), vehicle: Klucel (hydroxypropylcellulose) (HPC) 101 % of control | dose: 400.0 mg/kg/injection, schedule: Q01DX001 (ip), vehicle: Klucel (hydroxypropylcellulose) (HPC) 91 % of control

O=[N+]([O-])c1ccc(C(c2ccccc2)c2ccccc2)cc1
inactive: [13] 90 % of control

CCN1c2ccccc2S(=O)(=O)n2c(Cc3ccccc3)nnc21
inactive: dose: 100.0 mg/kg/injection, schedule: Q01DX001 (ip), vehicle: saline with Tween-80 93 % of control | dose: 200.0 mg/kg/injection, schedule: Q01DX001 (ip), vehicle: saline with Tween-80 92 % of control

Cc1nccn1CC(=O)c1ccccc1
inactive: [1] 104 % of control | [2] 104 % of control

COc1ccc2nc3cc(Cl)ccc3c(NCC3CCCN4CCCCC34)c2c1 (stereo unspecified)
inactive: dose: 12.5 mg/kg/injection, schedule: Q01DX005 (ip), vehicle: distilled water + Tween-80 98 % of control | dose: 25.0 mg/kg/injection, schedule: Q01DX005 (ip), vehicle: distilled water + Tween-80 103 % of control | dose: 50.0 mg/kg/injection, schedule: Q01DX005 (ip), vehicle: distilled water + Tween-80 104 % of control | dose: 100.0 mg/kg/injection, schedule: Q01DX005 (ip), vehicle: distilled water + Tween-80 113 % of control

CCNc1nc(Cl)nc(NC(C)C)n1
inactive: [9] 91 % of control | [10] 87 % of control | [11] 91 % of control

O=C(O)C(C1CC(Cl)=NO1)N1C(=O)c2ccccc2C1=O (stereo unspecified)
inactive: dose: 6.2 mg/kg/injection, schedule: Q04DX003 (ip), vehicle: other 101 % of control | dose: 12.5 mg/kg/injection, schedule: Q04DX003 (ip), vehicle: other 100 % of control | dose: 25.0 mg/kg/injection, schedule: Q04DX003 (ip), vehicle: other 105 % of control | dose: 50.0 mg/kg/injection, schedule: Q04DX003 (ip), vehicle: other 99 % of control | dose: 100.0 mg/kg/injection, schedule: Q04DX003 (ip), vehicle: other 101 % of control | dose: 200.0 mg/kg/injection, schedule: Q04DX003 (ip), vehicle: other 99 % of control

Nc1nc(CON2C(=O)c3ccccc3C2=O)cs1
inactive: [5] 97 % of control | [6] 99 % of control | [8] 103 % of control

CCCCCCCCCc1cc(=O)[nH]c(=S)[nH]1
inactive: dose: 15.0 mg/kg/injection, schedule: Q01DX005 (ip), vehicle: Klucel (hydroxypropylcellulose) (HPC) 99 % of control | dose: 30.0 mg/kg/injection, schedule: Q01DX005 (ip), vehicle: Klucel (hydroxypropylcellulose) (HPC) 102 % of control | dose: 60.0 mg/kg/injection, schedule: Q01DX005 (ip), vehicle: Klucel (hydroxypropylcellulose) (HPC) 90 % of control and 93 % of control | dose: 120.0 mg/kg/injection, schedule: Q01DX005 (ip), vehicle: Klucel (hydroxypropylcellulose) (HPC) 100 % of control

CSC1(c2ccccc2NS(=O)(=O)c2ccccc2)SCCS1
inactive: dose: 50.0 mg/kg/injection, schedule: Q04DX003 (ip), vehicle: saline 102 % of control | dose: 100.0 mg/kg/injection, schedule: Q04DX003 (ip), vehicle: saline 92 % of control | dose: 200.0 mg/kg/injection, schedule: Q04DX003 (ip), vehicle: saline 89 % of control

Cc1c(C)[n+]([O-])c(-c2ccc(Cl)cc2)n1O
inactive: [12] 100 % of control | dose: 100.0 mg/kg/injection, schedule: Q01DX009 (ip), vehicle: saline with Tween-80 100 % of control | [13] 100 % of control

CCCNc1ncc(C(=O)O)c(=O)[nH]1
inactive: dose: 1.56 mg/kg/injection, schedule: Q01DX009 (ip), vehicle: saline with Tween-80 104 % of control | dose: 3.12 mg/kg/injection, schedule: Q01DX009 (ip), vehicle: saline with Tween-80 95 % of control | dose: 6.25 mg/kg/injection, schedule: Q01DX009 (ip), vehicle: saline with Tween-80 95 % of control

COc1ccc(S(=O)(=O)N/N=C/c2cc([N+](=O)[O-])cc(I)c2O)cc1OC
inactive: [1] 97 % of control | [2] 94 % of control | [3] 91 % of control

COc1ccc(/C=N/N2C(=O)c3ccccc3C2=O)cc1
inactive: [5] 105 % of control | [6] 93 % of control | [8] 100 % of control
